For orientation: IC50 means the point on the concentration scale where inhibition reaches its midpoint.

The values that follow come from patent US12546780B2, “Method for identifying ubiquitin and ubiquitin-like enzyme activities” (CENTRE NATIONAL DE LA RECHERCHE SCIENTIFIQUE, priority 2019, dated 2026).

The test system of test [1] is UBC12 protein NEDDylation. Put plainly: Bead method: NEDD8 level on UBC12 beads with HL60 cell extracts. The conditions noted are these: HL60 cells, 1 μM, 6 h. In kind it is cell-based. As to the method: HL60 cells were first treated with 1 μM of MLN4924, DMSO, or only with the culture medium for 6 h. Beads supporting UBC12, (NEDDylation E2 enzyme, which was previously reported to be modified by NEDD8) were contacted with said cell extracts, and NEDD8 level was assessed.
Cells grown at a 5-8.10^5/mL density were spun down (300 g) at 4° C. for 5 min and washed once with PBS. After pellet resuspension in 1 mL of PBS, they were centrifuged again (16,000 g) at 4° C. for 5 min. Pellets were resuspended and incubated at 4° C. for 30 min in a hypotonic buffer (20 mM HEPES pH 7.5, 1.5 mM MgCl2, 5 mM KCl, 1 mM DTT and 1 mg/L of aprotinine, leupeptin and pepstatin) in a volume of 25 μL per 2.10^6 cells. Cell lysis was achieved through 4 freezing/thawing cycles using liquid nitrogen and DNA was sheared owing to 10 passages through a 20-1/2 G needle. Extracts were finally centrifuged twice (16000 g) at 4° C. for 20 min and supernatants were aliquoted, flash-frozen and kept at −80° C. until use. […]
(§1) SUMO-1-, SUMO-2-, NEDD8 and Ubiquitin vinyl sulfones (0.5 μM each) were added to cellular extracts (10 μL), which were incubated at 4° C. for 15 min. […] They were then resuspended in 200 μL PBS and flow-cytometry-analysed using the LSR Fortessa device from BD Biosciences. Results were analysed using the FlowJow software.

In a further test the test system is NEDDylation of OTUD6B. The test can be described thus: Bead method: NEDD8 addition on OTUD6B beads with HL60 cell extracts. In kind it is cell-based. As to conditions: HL60 cells, 0-500 nM, 6 h. As to the method: FIG. 8 represents graphs evaluating Ubiquitin addition on beads coated with TMEM92 (1), BEAN1 (2), WBP2 (3) proteins, SUMO1 addition on beads coated with ZMYM5 (4) or NEDD8 addition on beads coated with OTUD6B (5). […] As control, cell extracts treated N-ethylmaleimide (NEM) are used (A).
ZMYM5 was used as a marker of SUMOylation, OTUD6B as a marker of NEDDylation, and TMEM92, BEAN and WBP2 as a marker of ubiquitinylation.
Cells grown at a 5-8.10^5/mL density were spun down (300 g) at 4° C. for 5 min and washed once with PBS. After pellet resuspension in 1 mL of PBS, they were centrifuged again (16,000 g) at 4° C. for 5 min. Pellets were resuspended and incubated at 4° C. for 30 min in a hypotonic buffer (20 mM HEPES pH 7.5, 1.5 mM MgCl2, 5 mM KCl, 1 mM DTT and 1 mg/L of aprotinine, leupeptin and pepstatin) in a volume of 25 μL per 2.10^6 cells. Cell lysis was achieved through 4 freezing/thawing cycles using liquid nitrogen and DNA was sheared owing to 10 passages through a 20-1/2 G needle. […]
as §1

Another test concerns SUMOylation activity. As to conditions: read-out: in vitro IC50 (SUMOylation); cited from earlier work.
The test system of test [2] is NEDDylation (OTUD6B protein). As to conditions: read-out: in vitro IC50 (NEDDylation) on OTUD6B protein; cited from earlier work.
Test [3] deals with ubiquitination activity (TMEM92, BEAN1, WBP2). Put plainly: Bead method: ubiquitination activity on TMEM92, BEAN1 or WBP2 beads with HL60 cell extracts. As to conditions: HL60 cells, 6 h. It counts as cell-based. How it is done: Cells extracts were prepared and contacted with beads coated with either TMEM92, BEAN1 or WBP2 proteins.
(§2) Cells grown at a 5-8.10^5/mL density were spun down (300 g) at 4° C. for 5 min and washed once with PBS. After pellet resuspension in 1 mL of PBS, they were centrifuged again (16,000 g) at 4° C. for 5 min. Pellets were resuspended and incubated at 4° C. for 30 min in a hypotonic buffer (20 mM HEPES pH 7.5, 1.5 mM MgCl2, 5 mM KCl, 1 mM DTT and 1 mg/L of aprotinine, leupeptin and pepstatin) in a volume of 25 μL per 2.10^6 cells. Cell lysis was achieved through 4 freezing/thawing cycles using liquid nitrogen and DNA was sheared owing to 10 passages through a 20-1/2 G needle. Extracts were finally centrifuged twice (16000 g) at 4° C. for 20 min and supernatants were aliquoted, flash-frozen and kept at −80° C. until use.
2.10^5 magnetic MagPlex XMap beads (low concentration) from Luminex were transferred to a low binding microtube (Eppendorf) and washed using 500 mM NaCl. They were then resuspended in 50 μL of 50 mM MES pH 6.1 and incubated in the presence of 5 mg/mL 1-ethyl-3-(3-dimethylaminopropyl) carbodiimide hydrochloride (EDC, Pierce) and 5 mg/mL Sulfo-NHS (Pierce) at room temperature for 20 min. Beads were then washed in PBS containing 500 mM NaCl and incubated with 7 μg of recombinant protein to be coupled in 100 μL PBS at room temperature for 2 hrs. They were then washed twice with PBS containing 0.1% BSA, 0.02% Tween 20, 0.05% sodium azide and 500 mM NaCland stored at 4° C. in PBS containing 0.1% BSA, 0.02% Tween-20, 0.05% sodium azide.
SUMO-1-, SUMO-2-, NEDD8 and Ubiquitin vinyl sulfones (0.5 μM each) were added to cellular extracts (10 μL), which were incubated at 4° C. for 15 min. Control extracts were also incubated with 50 mM NEM. […] They were then resuspended in 200 μL PBS and flow-cytometry-analysed using the LSR Fortessa device from BD Biosciences. Results were analysed using the FlowJow software.

The subject of test [4] is SUMOylation activity on ZMYM5 protein. The test can be described thus: Bead method: SUMOylation activity on ZMYM5 with HL60 cell extracts. It counts as cell-based. The conditions noted are these: HL60 cells, 0-500 nM, 6 h; ZMYM5 beads. As to the method: ZMYM5 was used as a marker of SUMOylation, OTUD6B as a marker of NEDDylation, and TMEM92, BEAN and WBP2 as a marker of ubiquitinylation. […]
as §2
2.10^5 magnetic MagPlex XMap beads (low concentration) from Luminex were transferred to a low binding microtube (Eppendorf) and washed using 500 mM NaCl. […]
as §1

In the case of `NS(=O)(=O)OC[C@@H]1C[C@@H](n2ccc3c(N[C@H]4CCc5ccccc54)ncnc32)CC1O` (some centres unmarked) [MLN4924], the “UBC12 protein NEDDylation” value in test [1] is “decrease”.
For the molecule `NS(=O)(=O)OC[C@H]1C[C@@H](Nc2ccnc3cc(-c4cccc(SC(F)(F)F)c4)nn23)[C@H](O)[C@@H]1O` [MLN7243], in the test with NEDDylation of OTUD6B, the “effect on NEDDylation (OTUD6B beads)” value is recorded as “a decrease slightly different”. Further, the IC50 is 850 nM with SUMOylation activity and 28 nM in test [2]. Further, the ubiquitination activity inhibited result in test [3] (10 nM or more) is “more than 50%”. For the same molecule, in test [3] (500 nM, TMEM92 beads), the TMEM92 ubiquitination inhibition result is recorded as “maximal”. Also, in test [3] (500 nM, WBP2 and BEAN1 beads), the “WBP2 and BEAN1 ubiquitination remaining” value is “residual levels”. Also, in test [4], the “effect on SUMOylation activity” value is on record as “affects SUMOylation activity, but with large amounts of inhibitor”.
